These results are taken from patent publication US20220242872A1, “E3 LIGASE BINDERS AND USES THEREOF” (DANA-FARBER CANCER INSTITUTE, INC., priority 2019, published 2022).

“Also recorded” adds a separate entry of the source.

The target in assay [1] is T1, CRBN (Homo sapiens, UniProt Q96SW2). The experiment in a line: Assay for CRBN binding in the cell, 24 hours treatment (FIG. 3). Type of assay: cell-based. Set-up: endogenous in cells. The conditions noted are these: 293T WT cells (legend also says Jurkat WT). On the procedure: (§1) The results of an assay for CRBN binding (and degradation of IKZF or actin) upon treatment for 24 hours with exemplary compounds Qi-01-68, JADA53, and positive control lenalidomide (at the indicated concentrations in μM) in 293T WT cells (homo sapiens kidney cell line; wild type) are shown in FIG. 3.
T1 sequence (Q96SW2 whole entry): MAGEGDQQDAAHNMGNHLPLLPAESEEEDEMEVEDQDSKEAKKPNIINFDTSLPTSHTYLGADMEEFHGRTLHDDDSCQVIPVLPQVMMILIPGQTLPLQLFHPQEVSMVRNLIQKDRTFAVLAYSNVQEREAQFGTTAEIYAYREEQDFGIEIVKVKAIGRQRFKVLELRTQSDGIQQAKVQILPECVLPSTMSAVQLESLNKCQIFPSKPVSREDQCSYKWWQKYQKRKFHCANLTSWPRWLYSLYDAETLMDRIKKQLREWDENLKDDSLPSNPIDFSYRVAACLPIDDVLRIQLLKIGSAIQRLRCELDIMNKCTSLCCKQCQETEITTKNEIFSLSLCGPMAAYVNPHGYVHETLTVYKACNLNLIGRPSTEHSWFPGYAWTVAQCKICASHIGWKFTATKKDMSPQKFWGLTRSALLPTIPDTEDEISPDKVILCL

Assay [2] has as its target T2, IKZF1 (Homo sapiens, UniProt Q13422+Q96SW2). The experiment in a line: Degradation of IKZF upon 24 hours treatment (FIG. 3). Type of assay: cell-based. More on the design: endogenous in cells. The following applies: 293T WT cells (legend also says Jurkat WT). How it is done: as §1
For assay [3], the target named is T2, IKZF1. The experiment in a line: 24 hour IKZF Western Blot in Jurkat cells (FIG. 5), IKZF1. Set-up: endogenous in cells; host or cells: Jurkat. It is filed as cell-based. How it is done: (§2) Exemplary close analogues had low activity against CRBN (FIG. 4). For the IKZF Western Blot, the cell is Jurkat, the exemplary compounds for treatment are JADA3, 32, 53, and lenalidomide, and the time point is 24 hours (FIG. 5).
(§3) Conditions for Western blot:
(§4) Jurkat cells were seeded in 6 well plates, followed by the compound treatment for 24 hours. Primary and secondary antibodies used included anti-IKZF1 at 1:1000 dilution, anti-IKZF2 at 1:1,000 dilution, anti-IKZF3 at 1:1000 dilution, anti-ACTIN at 1:5,000 dilution, IRDye®680 Donkey anti-mouse at 1:5,000 dilution (926-68072, LiCor®, Lot: C61116-05) and IRDye®800 Goat anti-rabbit at 1:5,000 dilution (926-32211, LiCor®, Lot: C70301-05).
Background: Immunoblotting shows a protein as a band on a membrane.

In a further assay the target is T3, IKZF3 (Homo sapiens, UniProt Q96SW2+Q9UKT9).
T3 construct: endogenous in cells; host or cells: Jurkat
T3 sequence (Q9UKT9 whole entry): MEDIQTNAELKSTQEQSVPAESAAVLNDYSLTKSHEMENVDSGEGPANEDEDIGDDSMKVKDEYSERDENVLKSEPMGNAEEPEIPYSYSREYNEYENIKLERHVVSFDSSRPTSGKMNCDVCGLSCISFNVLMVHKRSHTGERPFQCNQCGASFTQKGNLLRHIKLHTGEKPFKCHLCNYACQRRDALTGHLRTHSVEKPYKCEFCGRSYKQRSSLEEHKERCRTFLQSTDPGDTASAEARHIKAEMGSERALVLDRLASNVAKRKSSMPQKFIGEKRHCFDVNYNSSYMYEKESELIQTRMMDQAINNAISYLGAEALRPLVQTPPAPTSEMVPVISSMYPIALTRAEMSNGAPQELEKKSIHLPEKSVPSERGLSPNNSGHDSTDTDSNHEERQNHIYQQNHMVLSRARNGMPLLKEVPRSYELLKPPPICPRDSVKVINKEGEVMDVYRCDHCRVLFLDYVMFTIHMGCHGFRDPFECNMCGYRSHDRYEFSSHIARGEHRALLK
T3 sequence (Q96SW2 whole entry): as the sequence (Q96SW2 whole entry) above
T3 sequence (Q16531 whole entry partner): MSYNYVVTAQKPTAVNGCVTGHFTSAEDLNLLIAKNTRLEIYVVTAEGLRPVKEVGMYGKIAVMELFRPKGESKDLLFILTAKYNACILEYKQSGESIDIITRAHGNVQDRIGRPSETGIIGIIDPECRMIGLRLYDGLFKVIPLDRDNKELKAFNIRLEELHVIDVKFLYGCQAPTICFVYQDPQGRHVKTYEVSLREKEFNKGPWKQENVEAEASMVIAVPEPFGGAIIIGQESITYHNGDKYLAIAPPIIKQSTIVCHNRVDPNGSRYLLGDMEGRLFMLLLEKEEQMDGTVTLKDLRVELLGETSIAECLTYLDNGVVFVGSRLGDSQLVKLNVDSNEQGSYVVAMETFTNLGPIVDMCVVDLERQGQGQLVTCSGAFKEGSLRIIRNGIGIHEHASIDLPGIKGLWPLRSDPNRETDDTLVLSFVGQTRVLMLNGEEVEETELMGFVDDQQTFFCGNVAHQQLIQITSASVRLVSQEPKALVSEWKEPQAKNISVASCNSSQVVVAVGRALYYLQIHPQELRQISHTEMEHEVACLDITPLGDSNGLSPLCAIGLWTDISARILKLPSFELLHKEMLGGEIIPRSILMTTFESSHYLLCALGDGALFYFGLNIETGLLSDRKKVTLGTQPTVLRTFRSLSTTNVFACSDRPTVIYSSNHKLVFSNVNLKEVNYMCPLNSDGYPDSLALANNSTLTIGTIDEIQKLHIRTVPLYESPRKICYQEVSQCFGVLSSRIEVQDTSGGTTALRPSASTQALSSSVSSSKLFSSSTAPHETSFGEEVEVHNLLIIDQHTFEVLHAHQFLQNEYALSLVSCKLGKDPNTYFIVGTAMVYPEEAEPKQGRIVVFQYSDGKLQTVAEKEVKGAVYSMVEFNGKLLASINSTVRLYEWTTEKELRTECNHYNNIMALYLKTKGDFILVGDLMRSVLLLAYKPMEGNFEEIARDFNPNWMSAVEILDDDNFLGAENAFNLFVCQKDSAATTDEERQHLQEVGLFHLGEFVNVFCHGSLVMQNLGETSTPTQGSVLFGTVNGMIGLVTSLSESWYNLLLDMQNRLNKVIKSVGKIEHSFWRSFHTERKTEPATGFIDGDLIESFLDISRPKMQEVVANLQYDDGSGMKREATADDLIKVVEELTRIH
The experiment in a line: 24 hour IKZF Western Blot in Jurkat cells (FIG. 5), IKZF3. It is filed as cell-based. How it is done:
as §2, §3, §4

In assay [4] the target is T1, CRBN. The experiment in a line: CRBN Fluorescence Polarization (FP) displacement assay. It is filed as binding. More on the design: His6 (N). The following applies: displacement of Atto565-lenalidomide from DDB1ΔB-CRBN; FIGS. 1, 4, 6A, 7. On the procedure:
Conditions for CRBN Fluorescence Polarization (FP) displacement assay: Atto565-conjugated lenalidomide (10 nM) was mixed with increasing concentration of purified his6-DDB1AB-his6—CRBN (10 μM final top concentration, 2-fold, 23-point dilution and DMSO control) in 384-well microplates (Corning, 4514) and incubated for 15 minutes (min) at room temperature (rt). The change in fluorescence polarization was monitored using a PHERAstar® FS microplate reader (BMG Labtech) for 20 min in 120 s cycles. The Atto565-lenalidomide bound fraction was calculated and the Kd was obtained from a fit in GraphPad Prism 7. Compounds in Atto565-Lenalidomide displacement assay were dispensed in a 384-well microplate (Corning®, 4514) using D300e Digital Dispenser (HP) normalized to 2% DMSO into 10 nM Atto565-Leanlidomide, 100 nM DDB1ΔB-CRBN, 50 mM Tris pH 7.5, 200 mM NaCl, 0.1% Pluronic® F-68 solution (Sigma), 0.5 mg/ml BSA (Sigma) containing 2% DMSO (4% DMSO final). The change in fluorescence polarization was monitored using a PHERAstar® FS microplate reader (BMG Labtech) for 20 min in 200 s cycles. IC50 values estimated using variable slope equation in GraphPad Prism 7.
In general terms: Fluorescence polarisation rises when a labelled molecule tumbles more slowly, as on binding a larger partner.

T2 sequence (Q13422 whole entry): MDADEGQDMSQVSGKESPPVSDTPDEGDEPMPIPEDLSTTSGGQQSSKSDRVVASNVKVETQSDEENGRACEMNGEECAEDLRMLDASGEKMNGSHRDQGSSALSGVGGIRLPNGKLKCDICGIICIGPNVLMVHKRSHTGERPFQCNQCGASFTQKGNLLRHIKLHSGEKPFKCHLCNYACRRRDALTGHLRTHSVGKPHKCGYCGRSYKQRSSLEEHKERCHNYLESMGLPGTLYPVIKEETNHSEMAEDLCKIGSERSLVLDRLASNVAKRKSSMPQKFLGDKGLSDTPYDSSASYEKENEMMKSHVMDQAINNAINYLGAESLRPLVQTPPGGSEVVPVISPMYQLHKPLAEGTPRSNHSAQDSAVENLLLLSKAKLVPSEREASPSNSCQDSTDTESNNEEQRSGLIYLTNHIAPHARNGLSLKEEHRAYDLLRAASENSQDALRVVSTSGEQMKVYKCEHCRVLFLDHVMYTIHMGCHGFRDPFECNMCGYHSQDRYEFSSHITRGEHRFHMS
T2 sequence (Q96SW2 whole entry): as the sequence (Q96SW2 whole entry) above
T2 sequence (Q16531 whole entry partner): as the sequence (Q16531 whole entry partner) above

Take `Cc1[nH]c2c(-c3cnn(-c4cc(OCCN)ccn4)c3)cnn2c(=O)c1C(C)C` [JADA53]: the “binding of target CRBN in the cell” value on CRBN [1] is given as “good binding”. Besides, at IKZF1 [2], the “degradation of IKZF / IKZF1 in cell” value was “can degrade IKZF; also recorded: degraded IKZF”. For the same compound, the “degradation of IKZF1 in cells (Western Blot)” value on IKZF1 [3] is “degraded”. For the same compound, the “degradation of IKZF3 in cells (Western Blot)” value on IKZF3 was “degraded”. Moreover, on CRBN [4], the “CRBN binding activity (FP displacement)” value is reported as “binds CRBN”.
